# From US20260071252A1, “REVERSIBLE NANOPARTICLE AGGREGATES AND METHODS FOR DETECTING PROTEASES” (The Regents of the University of California, priority 2022, published 2026)
# “Also recorded” adds a separate entry of the source. Where no end group is shown, it is not given here.
# What was measured:
# [1] = Dissociation of Arg-Arg-AuNPs assemblies with HS-PEGs (UV-Vis percentage of dissociation, MANTA size); conditions: for dissociation of Arg-Arg-AuNPs assemblies: anchoring group / non-PEG ligand controls, up to >100 μM
# Excerpt: Dissociation of the AuNPs assemblies. […] HS-PEG6-OCH3 was chosen because its grafting on AuNPs ensure a high colloidal stability of these latter. Indeed, the grafting of thiolated PEGs has been widely reported in the literature via the formation of a strong Au—S bond conferring to the particles a high colloidal stability due to a combination of hydrophilicity and steric hindrance.^30-32 The Au—S bond being stronger than the arginine-citrate, arginine-gold or even citrate-gold interactions, […] was expected to be capable of progressively replacing the arginine/citrate layers at the gold surface, disrupting the electrostatic network, and eventually dispersing the AuNPs (Scheme 1). Briefly, aqueous suspensions Arg-Arg-AuNPs assemblies were exposed to increasing concentrations of HS-PEG6-OCH3, and the dissociation of the assemblies was characterized by TEM, MANTA, FTIR and UV-Vis spectroscopies (FIG. 2).
# The presence of a PEG layer around the AuNPs explains the difference in the hydrodynamic diameter versus the initial AuNPs-citrate (48±32 nm vs 40±25 nm). Remarkably, the LSPR band of the dissociated AuNPs was identical to the AuNPs-citrate: The color of the sample returned to its initial bright red color. […] For the remainder of this study, the efficiency of the dissociation will be characterized by the percentage of dissociation (%) as measured by UV-Vis spectroscopy (comparison between the LSPR band after dissociation versus that from AuNPs-citrate). See the experimental section in the supporting information for more details. […] This finding is particularly interesting because the typical grafting density of HS-PEG6-OCH3 on dispersed AuNPs is reported to be between 3.5 and 4 HS-PEG6-OCH3/nm^2.^33 This implies that no excess of HS-PEGs was needed to dissociate the entire assembly-only enough to cover all the gold surface. It is worth noting that the kinetics of the dissociation was almost instantaneous (equilibrium reached within a minute) (FIG. 14). A video of the dissociation of the AuNPs assemblies is available online.
# Dissociation. Stock solutions of the different HS-PEGs with concentrations ranging from 10 μM to 1 mM were prepared. Specific volumes of each solution were added to a 96-well plate in order to reach the desired final HS-PEGs concentration and then 100 μL of Arg-Arg-AuNPs were added. For complex matrices experiments, the Arg-Arg-AuNPs were first concentrated 10 times by centrifugation and then dispersed in complex media (sea water, pooled human saliva, plasma, urine, bile or HEK cell lysates) that represented thus 90% of the total volume except for bile, which was only 20%. Quickly after the addition of AuNPs, the dissociation of the assembly was monitored and the ratio of the absorbances at 520 nm and 700 nm was recorded over time. The percentage of dissociation is described as follows:
# (§1) The optical absorption measurements were collected using a hybrid multi-mode microplate reader (Synergy™ H1 model, BioTek Instruments, Inc.) in a 96-well plate. The dissociation of assembly was characterized by measuring the ratio of the absorbance at 520 nm or 530 nm and 700 nm or 820 nm for 20 nm NPs or 40 nm NPs, respectively.
# The multispectral advanced nanoparticle tracking analysis (MANTA) is a technique that builds images from the particles' light scattering via three lasers of different wavelengths (for example, blue, green, and red); the wavelength of scattering depends on nanoparticle size. Thus, small particles (less than, or <, 100 nm) appear blue while larger particles appear greener or redder. MANTA uses these images to count the nanoparticles and calculate their size based on Brownian motion. […] 3000™ (Horiba Scientific, USA). The temperature was set to 25° C. during the measurement. Automated noise analysis determines the optimal wavelength for representing each nanoparticle. Here, 8-bit composite videos were generated, and 10 videos were used per analysis (300 frames for seconds).
# [2] = Peptide-enabled dissociation of RRK-induced AuNP aggregates; conditions: for particle dissociation: RRK-induced AuNP aggregates; for dissociation of aggregated AuNPs in diverse matrixes: 100% human saliva, plasma, urine, and seawater; for concentration that dissociates AuNP aggregates: Gly spacer length
# Description: After inducing AuNP aggregates by the RRK peptides, the A1 peptides with different concentrations from 7 to 300 μM were used to dissociate AuNP aggregates. The plasmonic resonance peak of AuNP aggregates blue shifted to 520 nm after particle dissociation. (FIG. 37b). The hydrodynamic diameter of AuNP aggregates (greater than (>) 1 μm) was reduced to 27±0.07 nm, and the surface charge of AuNPs was—13.4±1.03 mV because of surface modification with neutral charged A1 peptides (150 μM) and residual citrates (FIG. 37c). Particle dissociation induced color change from blue to red and a decrease in size as confirmed by time-dependent photographs, multi-laser wavelength nanoparticle tracking analysis (M-NTA), and TEM (FIG. 37d-e and FIG. 45A-C).
# To further study the role of each amino acid in the A1 peptide, we synthesized eight peptide sequences (from A2 to A8) for control experiments (FIG. 46A-H). Table 1 includes peptide sequence, net charge, critical dissociation concentrations (CDC), and design rationale. First, we replaced Cys residue with Gly (i.e., A2) to confirm the role of the anchoring group. […] Second, we hypothesized that negatively charged EE residues were required for particle dissociation because they provide electrostatic repulsions for citrate-coated AuNPs.
# Briefly, 10 μM of RRK peptide was used to aggregate 100 μL of AuNPs (conc approximately 3.6 nM). The particle aggregation rapidly occurred (less than 10 s), changing color from red to blue. Then the desired dissociation peptides were used to dissociate the AuNP aggregates. It is notable that these exemplary AuNPs are stabilized by citrate. Different surface ligands (for example, BSPP) and different sizes (40 or 60 nm) require different amounts of RRK peptide for particle aggregation.
# Briefly, RRK peptides (8-10 μM) was first used to trigger AuNP aggregation in distilled water. The sample was centrifuged at […] for 5 min to remove the supernatant. Then, the pellet was re-dispersed in 100% human saliva, plasma, urine, and seawater. After re-dispersion, the desired amounts of dissociation peptide were used to dissociate AuNPs aggregates in different matrixes. […] The experiment was performed with three replicates, and the microplate reader was used to measure spectral scanning from 300 to 900 nm before and after dissociation. The ratiometric signal (λ520/λ700) was referred as dissociation. The data was blanked to remove background signal.
# [3] = biological target: SARS-CoV-2 main protease (Mpro) (Severe acute respiratory syndrome coronavirus 2, UniProt P0DTD1)
# [4] = Peptide-induced (Arg-Arg) assembly of AuNPs-citrate, TEM/MANTA/UV-Vis
# Excerpt: Formation of AuNP assemblies. In this study, we investigated the possibility of forming convenient and reversible AuNPs assemblies using only elementary 15 nm AuNPs-citrate suspended in water and short peptides without the need for a complex surface modification. Peptides were used because they are relatively bulky and thus their steric prevented the particles from entering a permanent aggregated state. Arginine in particular can strongly interact with citrate anions via electrostatic interactions. A dipeptide containing two repetitions of arginine (Arg-Arg or RR) was thus used to interact with multiple particles at the same time and induce assembly.
# Multispectral advanced nanoparticles tracking analysis (MANTA) was then used to confirm the size increase: The initial blue scattering corresponding to a hydrodynamic diameter of 40±25 nm (FIG. 1C) transformed immediately into red scattering corresponding to a hydrodynamic diameter of approximately 467±120 nm (FIG. 1D). Importantly, the count of particles decreased by more than 90%—from 2.5×10^5/mL to 2×10^4/mL, thus confirming that the vast majority of the AuNPs-citrate were aggregated. TEM images at different magnifications are seen in the supporting information (FIG. 10 and FIG. 11).
# AuNPs Assembly and Dissociation Assembly. Typically, 1 mL of AuNPs-citrate at OD=1.5 was mixed with 50 μL of Arg-Arg (100 μM) to provoke the AuNPs assembly. The color of the suspensions rapidly changed from red to blue. The assembled AuNPs (Arg-Arg-AuNPs) were stable over time when stored at 4° C. and could be used for dissociation even month after their assembly.
# as §1
# The multispectral advanced nanoparticle tracking analysis (MANTA) is a technique that builds images from the particles' light scattering via three lasers of different wavelengths (for example, blue, green, and red); the wavelength of scattering depends on nanoparticle size. Thus, small particles (less than, or <, 100 nm) appear blue while larger particles appear greener or redder. MANTA uses these images to count the nanoparticles and calculate their size based on Brownian motion. MANTA was performed with the VIEWSIZER 3000™ (Horiba Scientific, USA). The temperature was set to 25° C. during the measurement. Automated noise analysis determines the optimal wavelength for representing each nanoparticle. Here, 8-bit composite videos were generated, and 10 videos were used per analysis (300 frames for seconds). A quartz cuvette with minimum volume of 1 mL was used for the measurement and the AuNPs concentrations was set up at 0.04 nM.
# [5] = critical dissociation concentration, X (no dissociation)
molecule,measurement,setting,value
"O=C(O)CCOCCOCCOCCOCCOCCOCCOCCOCCOCCOCCOCCOCCS [HS-PEG12-COOH, HS—(CH2CH2O)12—CH2CH2COOH]",assemblies dissociated,[1]; from concentrations of 10 μM,100%
"O=C(O)c1ccc(S)cc1 [MBA, 4-mercaptobenzoic acid, reference compound]",dissociation of Arg-Arg-AuNPs assemblies,[1],none could dissociate the aggregates
"O=C(O)CCS [MPA, 3-mercaptopropionic acid, reference compound]",dissociation of Arg-Arg-AuNPs assemblies,[1],none could dissociate the aggregates
Ace-CGGKKEEAVLQ-Am [Peptide A15],particle dissociation,[2],higher dissociation capacity than the A14 peptide; also recorded: dissociated AuNP aggregates
Ace-CGGKKEEAVLQSGF-Am [Peptide A19],peptide concentration causing non-desired particle dissociation,[3],over 50 μM
Ace-EEKKAAC-Am [Peptide A10],CDC,"[2]; spacer comparison PP, AA, GG",150 µM
Ace-EEKKGGC-Am (Ac-EEKKGGC-NH2) [Peptide A11],dissociation of aggregated AuNPs in diverse matrixes,[2],successfully dissociated the aggregated AuNPs in diverse matrixes
same,concentration that dissociates AuNP aggregates,[2],16 µM
same,particle dissociation,[2],highest dissociation capacity compared to other spacers
same,CDC,"[2]; spacer comparison PP, AA, GG",16 µM
Ace-EEKKGGCAVLQ-Am (Ac-EEKKGGCAVLQ-NH2) [Peptide A17],particle dissociation,[2],failed to dissociate AuNP aggregates; also recorded: decreased the dissociation capacity
Ace-EEKKGGGGC-Am (Ac-EEKKGGGGC-NH2) [Peptide A12],dissociation of aggregated AuNPs in diverse matrixes,[2],successfully dissociated the aggregated AuNPs in diverse matrixes
same,concentration that dissociates AuNP aggregates,[2],16 µM
Ace-EEKKGGGGGGC-Am (Ac-EEKKGGGGGGC-NH2) [Peptide A13],dissociation capacity lower than the A12 peptides,[2]; same peptide concentration (30 μM),25%
Ace-EEKKPPG-Am (Ac-EEKKPPG-NH2) [Peptide A2],particle dissociation,[2],failed to dissociate AuNP aggregates
Ace-EEPPC-Am [Peptide A7],CDC,[2]; [5],>300 µM
same,decreased to % of the dissociation capacity,[2]; relative to A1 peptide,30%
Ace-EEPPKKC-Am (Ac-EEPPKKC-NH2) [Peptide A5],dissociation capacity lower than A1 peptide,[2],50%
same,CDC,[2]; [5],>300 µM
Ace-KEEKKPPC-Am (Ac-KEEKKPPC-NH2) [Peptide A4],particle dissociation,[2],no particle dissociations
Ace-KKEEPPC-Am (Ac-KKEEPPC-NH2) [Peptide A6],particle dissociation,[2],particle dissociation was quenched
Arg-Arg,decrease of the count of particles,"[4]; MANTA, from 2.5×10^5/mL to 2×10^4/mL after Arg-Arg",more than 90%
same,Arg-Arg-induced aggregation of AuNPs-citrate in complex media,"[4]; biological fluids, high concentrations of Arg-Arg (>200 μM)",could not induce the AuNPs-citrate aggregation in biological fluids
same,hydrodynamic diameter (MANTA) after addition of di-arginine peptide,"[4]; excess (10^4 equiv.), 10 μM Arg-Arg, 10 minutes, initial AuNPs-citrate 40±25 nm",approximately 467±120 nm
Arg-Gly-Gly-Gly-Arg (RGGGR-NH2) [reference compound],affinity for the AuNPs-citrate compared to Arg-Arg (RR),[4]; FIG. 1F,higher affinity for the particles than RR
NH2-EEKKPPC-Am (H-EEKKPPC-NH2) [Peptide A3],particle dissociation,[2],no particle dissociations
SGFR,impact of released fragment on the dissociation process,[3],negligible impact on the dissociation process
